Entries after “also recorded” stand apart in the source; their conditions may differ. Structures can show the parent of a compound that is named as a salt.
Experiments:
KAT-18 cells [1] = assay: Cell proliferation assay (cell number), KAT-18 anaplastic thyroid cancer cells; assay type: cell-based, human
Experimental: The ATC cell line, KAT-18, was generously provided by Dr. K.B. Ain, The University of Kentucky, Lexington, KY) and the FTC cell line, WRO 82-1, was established by Dr. G. Juillard (University of California at Los Angeles, CA). The poorly differentiated papillary thyroid carcinoma cell line, KTC-1 [31], was a generous gift of Dr. James A. Fagin (Memorial Sloan Kettering Cancer Center, New York, NY). […] The cell cultures were maintained in a humidified atmosphere of 5% CO2 at 37°C. All cell lines were free of Mycoplasma and confirmed by single nucleotide polymorphism array analysis to be unique follicular cell-derived thyroid cancer cell lines.
Media and compounds were replaced daily. […] Cell viability was determined by trypan blue staining. At least two aliquots per well, and 2-4 wells/treatment, were counted for each experiment. Two to five experiments were conducted for each measure performed.

KAT-18 cells [2] = assay: DNA synthesis (BrdU incorporation) in KAT-18 cells; assay type: cell-based, human; conditions: 10^-6 M, 72 h; 30 μM BrdU 3 h prior to fixing (Fig. 5)
Experimental: To examine DNA synthesis, KAT-18 cells were seeded onto 22 mm diameter coverglasses placed in 6-well plates (3 × 10^3 cells/coverglass), and treated with compounds for 72 h; media and drugs were replaced daily. Three h prior to fixing cells, 30 μM BrdU (Sigma Chemicals, Indianapolis, IN) was added to cultures. Cells were rinsed, fixed in 10% neutral buffered formalin for 10 min, and stained with antibodies to BrdU (anti-BrdU-BOD, Roche/Invitrogen). At least 1000 cells/treatment using at least 2 coverglasses/treatment were counted, and the number of positive cells recorded. Labeling indexes were calculated as the number of positive stained cells divided by total cells.

KTC-1 cells = assay: Cell proliferation assay (cell number), KTC-1 papillary thyroid cancer cells; assay type: cell-based, human; conditions: 10^-6 M, 72 h (Fig. 6B)
Experimental: (§1) The ATC cell line, KAT-18, was generously provided by Dr. K.B. Ain, The University of Kentucky, Lexington, KY) and the FTC cell line, WRO 82-1, was established by Dr. G. Juillard (University of California at Los Angeles, CA). The poorly differentiated papillary thyroid carcinoma cell line, KTC-1 [31], was a generous gift of Dr. James A. Fagin (Memorial Sloan Kettering Cancer Center, New York, NY). The KAT-18 cells were grown in phenol-red free RPMI 1640 media (GIBCO/Invitrogen, Carlsbad, CA), and the WRO 82-1 and KTC-1 cells were grown in standard RPMI 1640 media supplemented with 1% non-essential amino acids. All media were supplemented with 10% fetal calf serum, 2 mM L-glutamine, 1.2% sodium bicarbonate, and antibiotics (5,000 Units/ml penicillin, 5 mg/ml streptomycin, 10 mg/ml neomycin). The cell cultures were maintained in a humidified atmosphere of 5% CO2 at 37°C. […]
(§2) Cells were seeded at equivalent amounts into 6- or 24-well plates (Falcon) and counted 24 h later (time 0) to determine plating efficiency. […] Cells were harvested by trypsinization with 0.25% trypsin/0.53 mM EDTA, centrifuged, and counted with a hemacytometer. Cell viability was determined by trypan blue staining. At least two aliquots per well, and 2-4 wells/treatment, were counted for each experiment. […]

WRO 82-1 cells = assay: Cell proliferation assay (cell number), WRO 82-1 follicular thyroid cancer cells; assay type: cell-based, human; conditions: 10^-6 M, 72 h (Fig. 7B)
Experimental: as §1, §2

KAT-18 cells [3] = assay: Apoptosis (TUNEL) in KAT-18 cells; assay type: cell-based, human; conditions: 72 h, data not shown
Experimental: Cells were harvested after 72 h of drug treatment, and TUNEL assays conducted according to manufacturer's recommendations.

KAT-18 cells [4] = assay: Growth of KAT-18 cells transfected with OGFr siRNA or scrambled siRNA; assay type: cell-based, human
Experimental: (§3) The OGFr-targeted siRNAs (antisense:5'-[…]-3'; sense: 5'-[…]-3') were designed and obtained as ready-annealed, purified duplex probes from Ambion (Austin, TX). For transfection, 5 × 10^4 KAT-18 cells per well were seeded in 6-well plates containing 1 ml of serum-containing media without antibiotics. In each well, 20 nM OGFr-siRNA or control siRNA solutions in serum-free media were added. […] At 72 h cells were collected for computing growth. Two independent experiments were conducted. The scrambled siRNAs were purchased from Ambion.

KAT-18 cells [5] = assay: Necrosis (trypan blue) in KAT-18 cells; assay type: cell-based, human; conditions: data not shown
Experimental: Necrosis was recorded as the number of positive trypan blue cells in any cell growth assay.

OGFr protein = assay: Semi-quantitative immunocytochemistry of OGFr protein after siRNA transfection of KAT-18 cells; assay type: cell-based, human; conditions: 72 h after transfection; mean staining intensity, approximately 50 cells/group (Fig. 4B)
Experimental: as §3
KAT-18 cells were seeded onto coverglasses, transiently transfected with OGFr-siRNA, and 72 h later stained with polyclonal antibodies to OGFr in order to detect the level of protein knockdown. OGFr protein levels were assessed by semi-quantitative immunocytochemistry whereby images were taken at the same exposure time with special care not to photobleach samples. The mean intensity of staining was determined for approximately 50 cells/group.

OGFr mRNA = assay: Northern blot analysis of OGFr after siRNA transfection of KAT-18 cells; assay type: cell-based, human; conditions: 20 nM siRNA; OGFr/GAPDH ratio by densitometry (Fig. 4A)
Experimental: as §3
Some cultures were transfected with siRNAs and then harvested 72 h later for Northern analysis. Total RNA was extracted using the Paris Kit (Ambion), separated on an agarose gel, and mRNA transferred to nylon membrane (Immobilon, Bio-Rad Laboratories, Hercules, CA). Membranes were probed with ^32P-dCTP- OGFr cDNA. To determine equal loading, blots were stripped and reprobed with radiolabeled GAPDH and optical density of each band was determined by densitometry and analyzed by QuickOne (Bio-Rad Laboratories). Each value was normalized to GAPDH from the same blot.

OGFr = target: T1, OGFr (Homo sapiens, UniProt Q9NZT2); assay: receptor binding assay
T1 chain: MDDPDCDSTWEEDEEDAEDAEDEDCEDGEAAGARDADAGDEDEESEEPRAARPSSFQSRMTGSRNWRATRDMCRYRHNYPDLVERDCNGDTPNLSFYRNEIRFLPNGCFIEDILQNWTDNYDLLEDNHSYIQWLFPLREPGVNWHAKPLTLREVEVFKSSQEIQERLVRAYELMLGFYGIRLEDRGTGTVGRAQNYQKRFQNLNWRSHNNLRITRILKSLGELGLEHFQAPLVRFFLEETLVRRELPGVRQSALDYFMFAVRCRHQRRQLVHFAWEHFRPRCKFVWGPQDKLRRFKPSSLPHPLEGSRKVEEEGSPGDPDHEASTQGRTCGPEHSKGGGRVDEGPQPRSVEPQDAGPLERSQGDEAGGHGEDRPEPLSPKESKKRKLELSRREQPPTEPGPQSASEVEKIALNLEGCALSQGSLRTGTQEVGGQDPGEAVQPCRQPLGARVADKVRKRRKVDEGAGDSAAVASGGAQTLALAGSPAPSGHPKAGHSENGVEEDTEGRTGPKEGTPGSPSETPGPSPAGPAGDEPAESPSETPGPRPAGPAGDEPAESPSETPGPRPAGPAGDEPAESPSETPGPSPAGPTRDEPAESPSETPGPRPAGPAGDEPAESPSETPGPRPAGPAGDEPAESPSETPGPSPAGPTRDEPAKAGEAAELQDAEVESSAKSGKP

[6] = 10^-6 M, 72 h, opioid specificity experiment (Fig. 3A)
[7] = 10^-6 M NTX, cultures receiving OGFr siRNA (Fig. 4C)
[8] = 10^-6 M OGF, cells transfected with OGFr siRNA (Fig. 4C)

[D-Ala^2, MePhe^4, Glycol^5]-enkephalin [DAMGO]
effect on cell proliferation vs control (KAT-18 cells [1]; [6]): Only OGF altered cell proliferation significantly

C=CCN1CC[C@]23c4c5ccc(O)c4O[C@H]2C(=O)CC[C@@]3(O)[C@H]1C5 [naloxone]
effect of naloxone on the OGF-induced depression in cell acquisition (KAT-18 cells [1]; KAT-18 cells): blocked the depression in cell acquisition | change in cell number vs control (KAT-18 cells [1]; naloxone 10^-6 M with or without OGF 10^-6 M, 72 h (Fig. 2C)): no change in cell number; also recorded: did not have any influence on cell replication

O=C1CC[C@@]2(O)[C@H]3Cc4ccc(O)c5c4[C@@]2(CCN3CC2CC2)[C@H]1O5 [NTX, naltrexone]
increase in DNA synthesis (BrdU) vs control (KAT-18 cells [2]): 25% | increase in cell number from control (KTC-1 cells): 30% | increase in cell number from control (WRO 82-1 cells): 30% | apoptosis relative to positive control samples (KAT-18 cells [3]): negligible | number of apoptotic cells vs control (KAT-18 cells [3]): No differences in the number of apoptotic or necrotic cells | cell number vs OGFr siRNA plus vehicle (KAT-18 cells [4]; [7]): did not differ from cells receiving OGFr siRNA plus vehicle | increase in cell number vs wildtype cells (KAT-18 cells [4]; [7]): 70% | increase in cell number vs wildtype cells receiving vehicle (KAT-18 cells [4]; 10^-6 M NTX, untreated and scrambled siRNA cultures (Fig. 4C)): 32% | necrosis (KAT-18 cells [5]): negligible | number of necrotic cells vs control (KAT-18 cells [5]): No differences in the number of apoptotic or necrotic cells

dynorphin A1-8 (YGGFLRRI; Dynorphin A(1-8); UniProt P01213 207-214, looked up)
effect on cell proliferation vs control (KAT-18 cells [1]; [6]): Only OGF altered cell proliferation significantly

endomorphin 2
effect on cell proliferation vs control (KAT-18 cells [1]; [6]): Only OGF altered cell proliferation significantly

[Met^5]-enkephalin [OGF]
reduction in cell number from control (KAT-18 cells [1]; 10^-4 M, 72 h, dose-response (Fig. 2A)): 38% | reduction in cell number from control (KAT-18 cells [1]; 10^-5 M, 72 h, dose-response (Fig. 2A)): 13% | reduction in cell number from control (KAT-18 cells [1]; 10^-6 M continuously, at 96 h (Fig. 2D)): 16% | reduction in cell number from control (KAT-18 cells [1]; 10^-6 M continuously, at 120 h (Fig. 2D)): 28% | reduction in cell number from control (KAT-18 cells [1]; 10^-6 M for 72 h, then media without OGF, at 96 h (Fig. 2D)): 6% | reduction in cell number from control (KAT-18 cells [1]; 10^-6 M for 72 h, then media without OGF, at 120 h (Fig. 2D)): 8% | reduction in cell number from control (KAT-18 cells [1]; 10^-6 M, 72 h, dose-response (Fig. 2A)): 14% | reduction in cell number from control (KAT-18 cells [1]; 10^-6 M, 72 h, naloxone experiment (Fig. 2C)): 20% | decrease in cell number from control (KAT-18 cells [1]; [6]): 33% | reduction in cell number from control (KAT-18 cells [1]; 10^-6 M, 72 h, reversibility study (Fig. 2D)): 22% | effect on cell number vs control (KAT-18 cells [1]; 10^-7 M, 72 h, dose-response (Fig. 2A)): no significant effect on cell number | duration of growth repression in presence of drug (KAT-18 cells [1]; KAT-18 cells): up to 120 h | time to observed growth repression after initiating drug exposure (KAT-18 cells [1]; KAT-18 cells): ≤ 24 h | maximum reduction in cell number ("by as much as") (KAT-18 cells [1]; KAT-18 cells, abstract): ≤ 38% | decrease in proportion of BrdU labeled cells vs control (KAT-18 cells [2]): 28% | reduction in cell number from control (KTC-1 cells): 31% | reduction in cell number from control (WRO 82-1 cells): 17% | number of apoptotic cells vs control (KAT-18 cells [3]): No differences in the number of apoptotic or necrotic cells | cell number, OGF vs sterile water (KAT-18 cells [4]; [8]): did not differ in cell number from each other | effect on cell number (KAT-18 cells [4]; [8]): no effect | reduction in cell number (KAT-18 cells [4]; 10^-6 M OGF, untransfected cultures and those transfected with scrambled siRNAs (Fig. 4C)): 30% | necrosis (KAT-18 cells [5]): negligible | number of necrotic cells vs control (KAT-18 cells [5]): No differences in the number of apoptotic or necrotic cells

endomorphin 1
effect on cell proliferation vs control (KAT-18 cells [1]; [6]): Only OGF altered cell proliferation significantly

β-endorphin (YGGFMTSEKSQTPLVTLFKNAIIKNAYKKGE; Beta-endorphin; UniProt P01189 237-267, looked up)
effect on cell proliferation vs control (KAT-18 cells [1]; [6]): Only OGF altered cell proliferation significantly

CN1CC[C@]23c4c5ccc(O)c4O[C@H]2[C@@H](O)C=C[C@H]3[C@H]1C5 [morphine, morphine sulfate]
effect on cell proliferation vs control (KAT-18 cells [1]; [6]): Only OGF altered cell proliferation significantly

antisense:5'-uagaaacucagguuuggcg-3'; sense: 5'-cgccaaaccugaguuucua-3' (sense CGCCAAACCUGAGUUUCUA; antisense UAGAAACUCAGGUUUGGCG; chemistry not fully specified) [OGFr siRNA, OGFr-targeted siRNAs, ready-annealed, purified duplex probes from Ambion]
decrease in OGFr protein expression relative to untransfected and scrambled siRNA cells (OGFr protein): 47% | OGFr level relative to cells treated with vehicle only (OGFr mRNA): less than 25% | increase in cell number vs vehicle only and scrambled siRNA (KAT-18 cells [4]; 20 nM siRNA, 72 h (Fig. 4C)): approximately 70% | effectiveness of OGFr siRNA knockdown in increasing cell number relative to NTX (KAT-18 cells [4]; KAT-18 cells): over twice as effective

[D-Pen^2,5]-enkephalin [DPDPE]
effect on cell proliferation vs control (KAT-18 cells [1]; [6]): Only OGF altered cell proliferation significantly

YGGFM [opioid growth factor (OGF)]
Kd (OGFr): 3.5 nM

Reference: PMC2770570 (BMC Cancer, 2009)
